Experimental data: patent publication US9359275B2, “Natural product antibiotics and analogs thereof” (Children's Medical Center Corporation, priority 2012, dated 2016)
Converted amounts (≈) assume the structure as drawn. Where two headings read alike, the source gives them in different places.

Columns and labels:
E. coli ATCC 25922 = assay: MIC, microdilution broth method in CAMHB; assay type: cell-based, Escherichia coli
P. aeruginosa ATCC 27853 = assay: MIC, microdilution broth method in CAMHB; assay type: cell-based, Pseudomonas aeruginosa
[1] = system: K. pneumoniae carbapenemase positive ATCC BAA-1705; assay: MIC, microdilution broth method in CAMHB; assay type: cell-based, Klebsiella pneumoniae
MRSA ATCC BAA-976 = assay: MIC, microdilution broth method in CAMHB; assay type: cell-based, Staphylococcus aureus
V. cholerae PW357 = assay: MIC, microdilution broth method in CAMHB; assay type: cell-based, Vibrio cholerae
[2] = system: M. tuberculosis H37Rv ATCC 27294; assay: MIC, microplate-based Alamar blue assay (MABA); assay type: cell-based, Mycobacterium tuberculosis
V. cholerae [3] = assay: Medium acidification (sugar fermentation) assay in pH-MMSuc, A615; settings: 30° C.
Method: The assays were carried out at 30° C. in pH-MMSuc to monitor sugar fermentation by A615 (FIGS. 5A, 5B, and 5C) or in MMPyr to monitor bacterial growth by OD615 (D, E, and F).
The assays were carried out at 30° C. in pH-MMSuc to monitor sugar fermentation by A615.
A minimal medium (MM) supplemented with sucrose (0.5% wt/vol), thymol blue (0.006% wt/vol) and bromothymol blue (0.006% wt/vol) (pH-MM^Suc) was used for the HTS (Houot et al., J Bacteriol (2008) 190: 311-320).
Conditions were tested in duplicate in each experiment, and two experimental replicates were performed on separate days.

V. cholerae [4] = assay: Growth assay in MMPyr (OD615) and plating for CFU; settings: with the assay described
Method: The assays were carried out at 30° C. in pH-MMSuc to monitor sugar fermentation by A615 (FIGS. 5A, 5B, and 5C) or in MMPyr to monitor bacterial growth by OD615 (D, E, and F). Bacteria were exposed to compound 1 (FIGS. 5A and 5D), compound 2 (FIGS. 5B and 5E) or compound 3 (FIGS. 5C and 5F) at concentrations ranging from 14 to 383 μM.
In secondary screens, MM was also supplemented with glucose (0.5% wt/vol), thymol blue (0.006% wt/vol), and bromothymol blue (0.006% wt/vol) (pH-MM^Glu') or pyruvate (0.5% wt/vol) (MM^Pyr).
Conditions were tested in duplicate in each experiment, and two experimental replicates were performed on separate days. […] To determine whether this represented bacteriostatic or bactericidal activity, dilutions of the cell suspensions were plated on LB agar after 20 hours of growth in MM^Pyr supplemented with compound 1 at a concentration of 383 μM.

[5] = Escherichia coli, ATCC25922, E. coli ATCC 25922, read-out: MIC
[6] = Pseudomonas aeruginosa, ATCC27853, P. aeruginosa ATCC 27853, read-out: MIC
[7] = Klebsiella pneumoniae, ATCCBAA1705, K. pneumoniae carbapenemase positive ATCC BAA-1705, read-out: MIC
[8] = Staphylococcus aureus, MRSA ATCC BAA-976, read-out: MIC
[9] = Vibrio cholerae, V. cholerae PW357, read-out: MIC
[10] = Mycobacterium tuberculosis, M. tuberculosis H37Rv ATCC 27294, Alamar Blue Assay, ≧90% inhibition, read-out: MIC

Molecule: CC1(C)S[C@@H]2[C@H](NC(=O)[C@H](N)c3ccccc3)C(=O)N2[C@H]1C(=O)O [AMP, ampicillin]
- MIC (E. coli ATCC 25922; [5]): 2.5 µg/mL (≈ 7.15 µM)
- MIC (P. aeruginosa ATCC 27853; [6]): > 80 µg/mL
- MIC [1, 7]: > 80 µg/mL
- MIC (MRSA ATCC BAA-976; [8]): > 80 µg/mL
- MIC (V. cholerae PW357; [9]): 2.5 µg/mL (≈ 7.15 µM)
- MIC [2, 10]: 0.25 µg/mL (≈ 0.715 µM)

Molecule: CCCc1c(O)ccc(O)c1CO [Compound 1, 2-(hydroxymethyl)-3-propyl hydroquinone]
- MIC (E. coli ATCC 25922; Escherichia coli, ATCC25922): 80 µg/mL (≈ 439 µM)
- MIC (P. aeruginosa ATCC 27853; Pseudomonas aeruginosa, ATCC27853): 80 µg/mL (≈ 439 µM)
- MIC ([1]; Klebsiella pneumoniae, ATCCBAA1705): > 80 µg/mL
- MIC (MRSA ATCC BAA-976; Staphylococcus aureus): 10 µg/mL (≈ 54.9 µM)
- MIC (V. cholerae PW357; Vibrio cholerae, PW357): 40 µg/mL (≈ 220 µM)
- MIC ([2]; Mycobacterium tuberculosis): 25 µg/mL (≈ 137 µM)
- concentration at which medium acidification was completely blocked (V. cholerae [3]): 261 µM
- concentration at which medium acidification was inhibited (V. cholerae [3]): 134 µM

Molecule: CC1Cc2c(ccc(O)c2CO)O1 (centres unmarked) [Compound 2, 5-hydroxy-4-(hydroxymethyl)-2-methyl 2,3-dihydrobenzofuran]
- antibacterial activity (in words) (V. cholerae [4]): demonstrated anti-bacterial activity

Molecule: CCCC1=C(CO)C(=O)C=CC1=O [Compound 3, 2-(hydroxymethyl)-3-propyl benzoquinone]
- antibacterial activity (in words) (V. cholerae [4]): little to no antibacterial activity

Molecule: C[C@@H](O)[C@H]1C(=O)N2C(C(=O)O)=C(SCCN=CN)C[C@H]12 [IMI, imipenem]
- MIC (E. coli ATCC 25922; [5]): 1.25 µg/mL (≈ 4.18 µM)
- MIC (P. aeruginosa ATCC 27853; [6]): 5 µg/mL (≈ 16.7 µM)
- MIC [1, 7]: > 80 µg/mL
- MIC (MRSA ATCC BAA-976; [8]): 1.25 µg/mL (≈ 4.18 µM)
- MIC (V. cholerae PW357; [9]): 1.25 µg/mL (≈ 4.18 µM)
- MIC [2, 10]: 100 µg/mL (≈ 334 µM)

Molecule: C[C@H]1COc2c(N3CCN(C)CC3)c(F)cc3c(=O)c(C(=O)O)cn1c23 [LEVO, levofloxacin]
- MIC (E. coli ATCC 25922; [5]): 0.019 µg/mL (≈ 0.0526 µM)
- MIC (P. aeruginosa ATCC 27853; [6]): 1.25 µg/mL (≈ 3.46 µM)
- MIC [1, 7]: > 80 µg/mL
- MIC (MRSA ATCC BAA-976; [8]): 0.312 µg/mL (≈ 0.863 µM)
- MIC (V. cholerae PW357; [9]): < 0.005 µg/mL
- MIC [2, 10]: 0.25 µg/mL (≈ 0.692 µM)

Molecule: CC1(O)CCC(c2c(O)cc3c(c2O)C(=O)c2c(O)cc(O)cc2C3=O)CO1 (centres unmarked) [SC3-22-19]
- sugar utilization (V. cholerae [3]): decreased sugar utilization

Molecule: bactrim [TMP/SMX]
- MIC (E. coli ATCC 25922; E. coli ATCC 25922): 0.125 µg/mL
- MIC (P. aeruginosa ATCC 27853): >16 µg/mL
- MIC ([1]; K. pneumoniae carbapenemase positive ATCC BAA-1705): >16 µg/mL
- MIC (MRSA ATCC BAA-976; MRSA ATCC BAA-976): 0.062 µg/mL
- MIC (V. cholerae PW357; V. cholerae PW357): >16 µg/mL
- MIC ([2]; M. tuberculosis H37Rv ATCC 27294, Alamar Blue Assay, ≧90% inhibition): 2 µg/mL
